Experimental data from patent publication US4812472A, “Isoxazole compounds and pharmaceutical compositions containing them for treatment and prophylaxis of retroviruses diseases” (Chemie Linz Akteingesellschaft, priority 1985, dated 1989).
≈ marks a conversion by molar mass, not a printed value.

Assays:
[1] = tested on: Rhino type 26; experiment: Virus inhibition test (MIC); type: cell-based, rhinovirus type 26; conditions: Enterovirus, in vitro, read-out: Minimum inhibitory conc. (MIC)
[2] = ATH8 cell viability; conditions: human, ath8 cells
[3] = tested on: Rhino type 16; experiment: Virus inhibition test (MIC); type: cell-based, rhinovirus type 16; conditions: Enterovirus, in vitro, read-out: Minimum inhibitory conc. (MIC)
[4] = tested on: Rhino type 3; experiment: Virus inhibition test (MIC); type: cell-based, rhinovirus type 3; conditions: Enterovirus, in vitro, read-out: Minimum inhibitory conc. (MIC)
[5] = tested on: Rhino type 55; experiment: Virus inhibition test (MIC); type: cell-based, rhinovirus type 55; conditions: Enterovirus, in vitro, read-out: Minimum inhibitory conc. (MIC)
[6] = tested on: Rhino type 37; experiment: Virus inhibition test (MIC); type: cell-based, rhinovirus type 37; conditions: Enterovirus, in vitro, read-out: Minimum inhibitory conc. (MIC)
[7] = tested on: Polio type 2; experiment: microbe, parasite or virus in culture; type: cell-based, poliovirus type 2; conditions: Enterovirus C, read-out: Minimum inhibitory conc. (MIC)
[8] = tested on: Rhino type 32; experiment: Virus inhibition test (MIC); type: cell-based, rhinovirus type 32; conditions: Enterovirus, in vitro, read-out: Minimum inhibitory conc. (MIC)
[9] = tested on: HIV (HTLV-IIIB); experiment: microbe, parasite or virus in culture; type: cell-based
[10] = tested on: Echo type B-9; experiment: Virus inhibition test (MIC); type: cell-based, echovirus type B-9; conditions: Echovirus, in vitro, read-out: Minimum inhibitory conc. (MIC)
[11] = tested on: Rhino type 48; experiment: Virus inhibition test (MIC); type: cell-based, rhinovirus type 48; conditions: Enterovirus, in vitro, read-out: Minimum inhibitory conc. (MIC)
[12] = Toxicity control, minimum toxic concentration (MTC); type: cell-based; conditions: cell density still lower than in the cell control

| SMILES | MIC [1] [µg/mL] | CC50 [2] [µM] | CC50 at 240 h [2] [µM] | MIC [3] [µg/mL] | MIC [4] [µg/mL] | MIC [5] [µg/mL] | MIC [6] [µg/mL] | MIC [7] [µg/mL] | MIC [8] [µg/mL] | inhibitory effect on HIV-induced cytopathogenicity in ATH8 cells ([9]; ATH8 cells) | ID50/MIC50 (in vitro therapeutic index) ([9]; ATH8 cells, day 6-7 after virus inoculation) | ID50/MIC50 (in vitro therapeutic index) ([9]; ATH8 cells, day 10 after virus inoculation) | EC50 ([9]; Human immunodeficiency virus 1, IIIB, ATH-8, 168 h, read-out: MIC50) [µM] | MIC [10] [µg/mL] | MIC [11] [µg/mL] | MCC [12] [µg/mL] |
| --- | --- | --- | --- | --- | --- | --- | --- | --- | --- | --- | --- | --- | --- | --- | --- | --- |
| Cc1cc(CCCCCCCOc2ccc(C3=NCCO3)s2)on1 [Compound A, 5-(7-(5-(4,5-dihydro-2-oxazolyl)-2-thienyl)-oxyheptyl)-3-methyl-isoxazole] | 0.3 (≈ 0.861 µM) | 35 | 35 | 0.3 (≈ 0.861 µM) | 0.03 (≈ 0.0861 µM) | 0.3 (≈ 0.861 µM) | 0.03 (≈ 0.0861 µM) | 0.1 (≈ 0.287 µM) | 1 (≈ 2.87 µM) | marked inhibitory effect | 175 | 175 | 0.2 | 0.03 (≈ 0.0861 µM) | 0.1 (≈ 0.287 µM) | 10 |
| Cc1cc(CCCCCCCOc2csc(C3=NCCO3)c2)on1 [Compound B, 5-(7-(2-(4,5-dihydro-2-oxazolyl)-4-thienyl)oxyheptyl)-3-methyl-isoxazole] | 1 (≈ 2.87 µM) |  |  | 1 (≈ 2.87 µM) | 0.1 (≈ 0.287 µM) | 0.3 (≈ 0.861 µM) | 0.03 (≈ 0.0861 µM) | 1 (≈ 2.87 µM) | 3 (≈ 8.61 µM) |  |  |  |  | 1 (≈ 2.87 µM) | 1 (≈ 2.87 µM) | 10 |
